Test results as given in patent US10266564B2, “Cationic lipid cordiarimide hybrid compounds and a process for preparation thereof” (COUNCIL OF SCIENTIFIC & INDUSTRIAL RESEARCH, priority 2014, dated 2019).
“Also recorded” adds a separate entry of the source.

Assays:
[1] = system: PC-3 (human prostate cancer cells); test: MTT assay for cell viability, PC-3; type: cell-based; settings: 48 h
Method: (§1) The human cancer cell lines e.g. HepG2 (hepatocellular carcinoma, ATCC® HB-8065™), PC-3 (human prostate cancer cells, ATCC® CRL-1435™), MCF-7 (breast adenocarcinoma, ATCC® […]), and mouse embryo fibroblasts (NIH/3T3, ATCC® CRL-1658™), used in the present study were obtained from the ATCC (American Type Culture Collection, USA and maintained in RPMI 1640 (Roswell Park Memorial Institute, Merck) with 10% FBS (Merck), supplemented with 1% antibiotic and antimycotic solution (Gibco, USA) at 37° C. in a humidified incubator with 5% CO2. All stock solutions of the compounds were prepared in cell culture grade DMSO (dimethyl sulfoxide) and stored at −20° C. Compounds were diluted in culture media prior to use in experiments. Annexin V-FITC apoptosis detection kits were purchased from Calbiochem. MTT dye was procured from Sigma-Aldrich. All the flow cytometry experiments were performed using a FACScan (Becton Dickinson, Mountain View, Calif.) flow cytometer, equipped with a single 488 nm argon laser.
(§2) Cell viability was assessed by MTT assay, which is based on the reduction of MTT by mitochondrial dehydrogenases of viable cells to form a purple formazan product. Briefly, cells (5-6×10^3/well) were plated in 96 well plates. After incubating overnight, the cells were treated with […] different concentrations (100, 50, 20, 10, 5, 2.5, 1.25 μM) in triplicates with the cationic lipidated cordiarimide and intermediates for 48 h. Subsequently, 10 μL of MTT (10 mg/mL) was added to each well and incubated for 3 h. The MTT formazan formed by viable cells was dissolved in 100 μL of DMSO and shaken for 10 min. The absorbance was measured on an ELISA reader. Each test was repeated at least three times. The concentration of the compound which gives the 50% growth inhibition value corresponding to IC50, was calculated using GraphPad prism 5 software. In the present invention we have screened 26 lipidated cordiarimides and the results are described in table 1.

[2] = biological target: hLig1 (Homo sapiens, UniProt P18858); test: Kinetic analysis of ligation inhibition (Lineweaver-Burk); type: biochemical; settings: 5 and 10 μM
Method: We measured the kinetics of hLig1 mediated ligation in the absence are presence of 8k at 5 and 10 μM concentrations and drew Lineweaver-Burk plots (FIG. 6B).

[3] = system: caspase-3 in HepG2 cells; test: Caspase-3 colorimetric activation assay; type: cell-based, human; settings: HepG2, 5 and 10 μM, 24 h
Method: The activity of caspase-3 was determined using a caspase-3 colorimetric assay kit (Sigma Aldrich) according to the manufacturer's protocol. Briefly, HepG2 cells (1×10^6 cells/well) were treated with 5 and 10 μM of 8i and 8k for 24 h. The cells were harvested and lysed by addition of lysis buffer. Cell lysates were mixed with colorimetric substrate (Ac-DEVD-pNA) and incubated at 37° C. in the dark for 4 h. The absorbance was measured at 405 nm in an ELISA reader. Caspase-3 activity was expressed as the change of the activity compared to the control (FIG. 3).

[4] = system: HepG2 (hepatocellular carcinoma); test: MTT assay for cell viability, HepG2; type: cell-based, human
Method: as §1, §2

[5] = system: HepG2 cells; test: Cell cycle analysis, PI staining by flow cytometry; type: cell-based, human; settings: HepG2, 24 h, 5, 10, and 20 mM as printed
Method: For cell cycle distribution studies after treatment with different molar concentrations of 8i and 8k, HepG2 cells were fixed overnight in 70% ethanol, rehydrated in PBS with ribonuclease A (100 μg/ml) and Triton-X (1%) for 30 min at room temperature then PI (at 50 μg/ml) was added and incubated in the dark for 30 min and analyzed with a flow cytometer. Experiments were repeated two times independently.

[6] = system: mouse embryo fibroblasts (NIH/3T3); test: MTT assay for cell viability, NIH/3T3; type: cell-based; settings: NIH3T3, 48 h
Method: as §1, §2

[7] = biological target: hLig1-DNA complex (Homo sapiens, UniProt P18858); test: Electrophoretic mobility shift assay (EMSA); type: binding; settings: 25, 50 and 100 μM; hLig1 10 pmol, DNA 1 pmol
Method: EMSA was performed as described in Xi Chen et. al, Cancer Res 2008; 68(9):3169-3177 with some modifications, for the interaction study between 8k and hLig1. Of the three oligos used to construct the DNA substrate, one was a 5′-FAM labelled 27-mer oligo with a dideoxy modified 3′ end. Other two oligos of 25-mer and 52-mer were used. These oligos were annealed to obtain a non-ligatable nicked DNA substrate which the ligase enzyme can recognize and bind to, but cannot ligate or release from it. […] Lanes 3-5 (FIG. 6A) contain increasing concentrations of the inhibitor. A shift in signal is seen is lanes 3-5. This shift in the ligase-DNA complex can occur only if the inhibitor binds to the complex of hLig1+DNA and increases the size of the complex. If inhibitor binds to ligase alone, then we would expect fewer signals in lanes 3-5. But since we see an increase in intensity of signal as well as a super-shift in the signal, we can reliably say that the inhibitor binds to the DNA-ligase complex and not separately to either DNA or ligase.

Chain of hLig1 (P18858 whole entry): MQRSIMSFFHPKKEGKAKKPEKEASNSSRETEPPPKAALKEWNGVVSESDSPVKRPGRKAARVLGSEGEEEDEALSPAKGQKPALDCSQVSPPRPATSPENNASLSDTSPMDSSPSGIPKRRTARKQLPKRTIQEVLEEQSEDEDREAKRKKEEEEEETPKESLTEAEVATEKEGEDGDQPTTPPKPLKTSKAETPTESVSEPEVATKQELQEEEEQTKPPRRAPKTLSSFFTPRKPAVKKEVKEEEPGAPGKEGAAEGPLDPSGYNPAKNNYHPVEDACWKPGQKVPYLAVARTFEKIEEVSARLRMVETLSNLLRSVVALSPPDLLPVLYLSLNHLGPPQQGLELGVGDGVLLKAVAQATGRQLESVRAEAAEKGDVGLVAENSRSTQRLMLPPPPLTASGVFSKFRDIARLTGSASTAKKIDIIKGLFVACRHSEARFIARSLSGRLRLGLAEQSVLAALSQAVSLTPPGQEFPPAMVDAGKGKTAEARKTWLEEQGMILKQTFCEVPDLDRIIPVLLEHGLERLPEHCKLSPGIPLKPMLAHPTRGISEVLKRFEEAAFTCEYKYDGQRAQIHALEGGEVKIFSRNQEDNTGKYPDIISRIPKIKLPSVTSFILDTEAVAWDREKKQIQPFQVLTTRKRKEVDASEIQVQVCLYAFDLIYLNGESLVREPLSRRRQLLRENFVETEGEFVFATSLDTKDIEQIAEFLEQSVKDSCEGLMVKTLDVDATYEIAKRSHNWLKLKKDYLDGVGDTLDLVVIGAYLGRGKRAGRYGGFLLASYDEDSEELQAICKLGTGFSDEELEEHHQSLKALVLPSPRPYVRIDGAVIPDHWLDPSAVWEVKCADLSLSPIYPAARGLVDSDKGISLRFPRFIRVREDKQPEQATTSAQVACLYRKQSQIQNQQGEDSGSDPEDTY
Chain of hLig1-DNA complex (P18858 whole entry, one chain of several): as the sequence (P18858 whole entry) above

CCCCCCCCCCCC[N+](C)(CCCCCCCCCCCC)CC(=O)NC1CCC(=O)N(CC(=O)c2ccccc2)C1=O (stereo not drawn) [Compound 8k, {[2,6-Dioxo-1-(2-oxo-2-phenyl-ethyl)-piperidin-3-ylcarbamoyl]-methyl}-Didodecyl-methyl-ammonium iodide]
IC50 [1]: 5.61 µM
IC50 ([1]; Homo sapiens): 5.6 µM
mode of inhibition by enzyme kinetics [2]: un-competitively
caspase-3 activation [3]: activated the caspase-3 in HepG2 cells dose dependently; also recorded: activated the casepase-3 in HepG2 cells dose dependently
IC50 ([4]; 48 h): 1870 nM
IC50 ([4]; Homo sapiens, HepG2, 48 h): 1800 nM
effect on cell cycle progression [5]: significant accumulation of cells in G0/G1 phase; also recorded: blocked the cell cycle in G0/G1 phase
IC50 [6]: > 20 µM
mode of inhibition by EMSA [7]: un-competitive mode of inhibition
